Experimental data as given in patent publication US20070082068A1, “Il-8 production promoters and use thereof” (priority 2003, published 2007).

Key:
[1] = tested on: IL-8 production by Caco-2 cells; experiment: Effect of promoting IL-8 production by Caco-2 cells (sandwich ELISA of culture supernatants); assay type: cell-based, human; settings: compounds at final concentration 100 μg/ml; 6-hour culture, then 12 hours in additive-free media; differentiated Caco-2 cells; significant difference P<0.01
Protocol: Caco-2 cells (human colon cancer-derived cell line; American Type Culture Collection, Rockville, Md., U.S.A.) were used as small-intestinal epithelial cell models to evaluate the influence of peppermint, dokudami (houttuynia herb), and licorice extracts on IL-8 production by the cells.
(§1) The Caco-2 cells were subcultured in 24-well plates. The resulting cells were cultured at 37° C. for 14 days under 5% CO2 conditions and thereby differentiated into small-intestinal epithelioid cells. Culture media used were DMEM media (SIGMA Corp.) containing 10% fetal calf serum, 1% non essential amino acid solution, 2% glutamine, 100 U/ml penicillin, and 100 μg/ml streptomycin. A peppermint extract obtained in Example 1, a dokudami (houttuynia herb) extract obtained in Example 2, and a licorice extract obtained in Example 3 were added at each final concentration of 100 μg/ml to the media, and the cells were cultured therein. After 6-hour culture, the media were replaced with additive-free media, followed by additional culture for 12 hours. The resulting culture supernatants were subjected to sandwich ELISA assay (Eckmann, L., et al., Gastroenterology, 105, 1689-1697, 1993) to quantify the amount of IL-8 in the culture supernatants.
Caco-2 cells (human colon cancer-derived cell line; American Type Culture Collection, Rockville, Md., U.S.A.) were used as small-intestinal epithelial cell models to evaluate the influence of α-humulene, α-pinene, β-pinene and L-menthol on IL-8 production by the cells.
as §1, with “5% Co2” for “5% CO2”, “streptomycin. α-humulene (SIGMA Corp.), α-pinene (SIGMA Corp.), β-pinene (SIGMA Corp.),” for “streptomycin. A peppermint extract obtained in Example 1, a dokudami (houttuynia herb) extract obtained in Example 2,”, “and L-menthol (SIGMA Corp.)” for “and a licorice extract obtained in Example 3”, “media was” for “media were”, “assay” for “assay (Eckmann, L., et al., Gastroenterology, 105, 1689-1697, 1993)”

Caco-2 cells = experiment: Evaluation of cytotoxicity by LDH (lactate dehydrogenase) assay; assay type: cell-based; settings: 100 μg/ml; 24 hours; differentiated Caco-2 cells
Protocol: The cytotoxicity of peppermint, dokudami (houttuynia herb), licorice extracts was evaluated with Caco-2 cells. The Caco-2 cells differentiated into small-intestinal epithelioid cells in the same way as in Example 4 were cultured for 24 hours in media containing the peppermint, dokudami (houttuynia herb), and licorice extracts at each final concentration of 100 μg/ml. Subsequently, the media were removed, and the resulting cells were washed twice with PBS (phosphate buffered saline) (−) (Nissui Co., Ltd.). The cells were further supplemented with 700 μl of PBS (−) and left undisturbed at 37° C. for 2 hours. […] In summary, this assay is a method for quantifying cytotoxicity based on the activity of LDH released from dead cells by colormetrically determining formazan converted from a tetrazolium salt serving as a coloring reagent. The rate of free LDH (%) was calculated according to the equation below by using the LDH concentration in the collected PBS (−) as the amount of free LDH and the LDH concentration in the cell lysate as the amount of intracellular LDH. […]
The cytotoxicity of α-humulene was evaluated with Caco-2 cells. […] The rate of free LDH (6) was calculated according to the equation below by using the LDH concentration in the collected PBS (—) as the amount of free LDH and the LDH concentration in the cell lysate as the amount of intracellular LDH. […]

Row | SMILES | IL-8 production by the Caco-2 cells (relative IL-8 concentration to a control, FIG. 2) [1] | Cytotoxicity (rate of free LDH vs control, FIG. 4) (Caco-2 cells)
1 | C=C1CC[C@@H]2C[C@H]1C2(C)C [β-pinene] | remarkably promoted IL-8 production | –
2 | CC(C)[C@@H]1CC[C@@H](C)C[C@H]1O [L-menthol] | remarkably promoted IL-8 production | –
3 | CC1=CC[C@H]2C[C@@H]1C2(C)C [α-pinene] | remarkably promoted IL-8 production | –
4 | C/C1=C\CC/C(C)=C/CC(C)(C)/C=C/C1 [α-humulene] | remarkably promoted IL-8 production | no cytotoxicity
